{"source": "patent US20150272931A1", "about": "“New Treatment” (priority 2012, published 2015)", "tested_on": "sea lice (L. salmonis)", "assay": "In-feed treatment of sea lice infested salmon: efficacy", "format": "in vivo, Lepeophtheirus salmonis on Atlantic salmon", "conditions": "for Reduction of total sea lice: adult sea lice, lice examined ten days after end of treatment", "description": "In-feed treatment of sea lice infested salmon with 5 different neonicotinoids (a) Method: Atlantic salmon (estimated mean weight 50-100 g) were batch weighed and allocated to a single 2 m diameter challenge tank. Fish were challenged with sea lice (L. salmonis) copepodids. Within one week of the successful lice challenge, fish were randomly allocated from the 2 m challenge tank to 1 m diameter treatment tanks so that each tank contained thirty fish.\nFish were maintained until lice developed to adult stages. This was monitored by periodic examination of fish from the control tank. There were five test compounds acetamiprid (A), clothianidin (B), imidacloprid (C), nitenpyram (D) plus a control (E), each compound was tested at three doses. Experimental diets were prepared by top dressing feed pellets with the powder formulation and sealing with fish oil. Once lice had developed to adult stages, fish in all tanks received an in-feed treatment according to the relevant group for a period of seven days. Uneaten feed was collected daily to estimate the mean dose achieved in each group. Fish were examined for lice ten days following the end of the treatment period.\nFollowing the 7day treatment period, the mean sea lice count in the control group was 7±3 adult sea lice meaning the total of adult males, adult non-ovigerous females and adult ovigerous females.", "key": {"[1]": {"conditions": "dose 1 mg/kg/day in feed for 7 days"}, "[2]": {"conditions": "dose 5 mg/kg/day in feed for 7 days"}, "[3]": {"conditions": "dose 10 mg/kg/day in feed for 7 days"}}}
{"smiles": "C/C(=N\\C#N)N(C)Cc1ccc(Cl)nc1", "note": "[Acetamiprid, acetamiprid]", "values": [{"measurement": "Reduction of total sea lice", "setting": "[1]", "result": 53, "unit": "%"}, {"measurement": "Reduction of total sea lice", "setting": "[2]", "result": 64, "unit": "%"}, {"measurement": "Reduction of total sea lice", "setting": "[3]", "result": 85, "unit": "%"}]}
{"smiles": "CN/C(=N\\[N+](=O)[O-])NCc1cnc(Cl)s1", "note": "[Clothianidin, (E)-1-(2-Chlor-1,3-thiazol-5-ylmethyl)-3-methyl-2-nitroguanidin]", "values": [{"measurement": "sea lice reduction efficacy", "setting": "at all three selected concentrations (10, 5, 1 mg/kg/day)", "result": "≥ 90", "unit": "%"}, {"measurement": "Reduction of total sea lice", "setting": "[1]", "result": 90, "unit": "%"}, {"measurement": "Reduction of total sea lice", "setting": "[2]", "result": 98, "unit": "%"}, {"measurement": "Reduction of total sea lice", "setting": "[3]", "result": 99, "unit": "%"}, {"measurement": "sea lice elimination", "setting": "in-feed treatment, summary statement", "result": "full sea lice elimination"}]}
{"smiles": "O=[N+]([O-])NC1=NCCN1Cc1ccc(Cl)nc1", "note": "[Imidacloprid, imidacloprid]", "values": [{"measurement": "Reduction of total sea lice", "setting": "[1]", "result": 91, "unit": "%"}, {"measurement": "Reduction of total sea lice", "setting": "[2]", "result": 94, "unit": "%"}, {"measurement": "Reduction of total sea lice", "setting": "[3]", "result": 81, "unit": "%"}]}
{"smiles": "CCN(Cc1ccc(Cl)nc1)/C(=C/[N+](=O)[O-])NC", "note": "[Nitenpyram, nitenpyram]", "values": [{"measurement": "Reduction of total sea lice", "setting": "[1]", "result": 48, "unit": "%"}, {"measurement": "Reduction of total sea lice", "setting": "[2]", "result": 89, "unit": "%"}, {"measurement": "Reduction of total sea lice", "setting": "[3]", "result": 89, "unit": "%"}]}
